Measurements as given in patent EP3046573B1, “AMYLIN ANALOGUES” (Zealand Pharma A/S, priority 2013, dated 2015).
Where two headings read alike, the source gives them in different places. Numbered stars: 1 amine (or outer) side, 2 acyl side, 3 side chain; on linkers, the order of the positions; unused ones are H or OH. Bridge positions count the residues as written; N and C are the ends. Square brackets hold non-standard residues; d marks the D form. Peptide text beside a SMILES is read from it. * marks the point of attachment. C20 diacid = O=C(O)CCCCCCCCCCCCCCCCCCC(=O)*; γGlu = O=C(O)[C@H](CCC(=O)[*:2])N[*:1]; NMeI = CC[C@H](C)[C@H](NC)C(=O)O; Dap = NC[C@H](N)C(=O)O; Sar = CNCC(=O)O

Tests used:
[1] = Solubility assessment (turbidity absorbance at 325 nm); type: physicochemical; conditions: stock 2 mg/ml diluted 1:1, ambient temperature (typically 25°C), n=1; for Solubility, Acetate buffer pH 4: 100 mM acetate buffer pH 4.0; for Solubility, Acetate buffer pH 5: 100 mM acetate buffer pH 5.0; for Solubility, Histidine buffer pH 6: 100 mM histidine buffer pH 6.0; for Solubility, Histidine buffer pH 7: 100 mM histidine buffer pH 7.0; for Solubility, Phosphate buffer pH 6: 100 mM phosphate buffer pH 6.0; for Solubility, Phosphate buffer pH 7: 100 mM phosphate buffer pH 7.0; for Solubility, Phosphate buffer pH 7.5: 100 mM phosphate buffer pH7.5
How it was run: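 Turbidimetric screen across pH 4.0–7.5 in 100 mM acetate, histidine and phosphate buffers. A 2 mg/ml peptide stock (pH 2.5) was diluted 1:1 into each, then A325 measured at ambient temperature; values ≤ 0.02 AU denoted solubility of 1 mg/ml or more.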

[2] = biological target: T1, human calcitonin receptor (hCTR2) (Homo sapiens, UniProt P30988); assay: hCTR2 assay: induction of cAMP (AlphaScreen cAMP Assay kit) in COS7 cells expressing hCTR2; type: cell-based
T1 construct: expressed in transfected cells
T1 sequence (P30988 25-474): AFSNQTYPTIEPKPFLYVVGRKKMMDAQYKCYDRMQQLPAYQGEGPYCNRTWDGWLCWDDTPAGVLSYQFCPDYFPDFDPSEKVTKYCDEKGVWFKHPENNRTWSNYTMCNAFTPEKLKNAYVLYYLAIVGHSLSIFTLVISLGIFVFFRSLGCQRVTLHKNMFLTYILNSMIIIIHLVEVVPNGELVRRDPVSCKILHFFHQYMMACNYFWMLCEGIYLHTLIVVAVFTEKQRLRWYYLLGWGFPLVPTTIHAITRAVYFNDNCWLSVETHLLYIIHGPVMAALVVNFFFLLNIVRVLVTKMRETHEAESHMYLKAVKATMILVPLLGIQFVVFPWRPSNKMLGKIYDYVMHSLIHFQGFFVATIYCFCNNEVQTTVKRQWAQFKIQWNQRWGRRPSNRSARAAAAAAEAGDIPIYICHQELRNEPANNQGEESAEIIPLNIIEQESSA
How it was run: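 cAMP induction was measured by AlphaScreen in COS7 cells stably expressing hCTR2 without RAMPs, after 15 min at 37° C with increasing peptide concentrations, 100 µM IBMX and 0.1% casein (Tyrode, pH 7.4). A 4-parameter logistic fit gave EC50 and % efficacy versus pramlintide.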

[3] = cAMP induction in COS7 cells expressing hCTR2, average of a minimum of 3 determinations, read-out: hCTR2 EC50

EC50 [2, 3] [pM] | Structure (SMILES) | Solubility, Acetate buffer pH 4 [1] | Solubility, Acetate buffer pH 5 [1] | Solubility, Histidine buffer pH 6 [1] | Solubility, Histidine buffer pH 7 [1] | Solubility, Phosphate buffer pH 6 [1] | Solubility, Phosphate buffer pH 7 [1] | Solubility, Phosphate buffer pH 7.5 [1] | EC50 [2] [pM]
 | CC[C@H](C)[C@@H](C(=O)N[C@@H](CC(C)C)C(=O)N[C@H](CO)C(=O)N[C@@H](CO)C(=O)N[C@H](C(=O)N[C@@H](CC(N)=O)C(=O)N[C@H](C(=O)NCC(=O)N[C@@H](CO)C(=O)N[C@@H](CC(N)=O)C(=O)N[C@H](C(=O)N1CCC[C@H]1C(N)=O)[C@@H](C)O)C(C)C)[C@@H](C)O)N(C)C(=O)[C@H](C)NC(=O)CN(C)C(=O)[C@H](Cc1ccccc1)NC(=O)[C@H](CC(N)=O)NC(=O)[C@H](CC(N)=O)NC(=O)[C@H](CO)NC(=O)[C@H](CO)NC(=O)[C@H](CCCNC(=N)N)NC(=O)[C@H](Cc1c[nH]cn1)NC(=O)[C@H](CC(C)C)NC(=O)[C@H](Cc1ccccc1)NC(=O)[C@H](CCC(=O)O)NC(=O)[C@H](C)NC(=O)[C@H](CC(C)C)NC(=O)[C@H](CCCNC(=N)N)NC(=O)[C@H](CCC(N)=O)NC(=O)[C@@H](NC(=O)[C@H](C)NC(=O)[C@@H]1CSSC[C@H](NC(=O)[C@H](CCCCN)NC(=O)CC[C@H](NC(=O)CCCCCCCCCCCCCCCCCCC(=O)O)C(=O)O)C(=O)N[C@@H](CC(N)=O)C(=O)N[C@@H]([C@@H](C)O)C(=O)N[C@@H](C)C(=O)N[C@@H]([C@@H](C)O)C(=O)N1)[C@@H](C)O [Compound 68, [19CD]-isoGlu-KC()NTATC()ATQRLAEFLHRSSNNF-Gly(Me)-A-Ile(Me)-L-DSer-STNVGSNTP-NH2] ({C20 diacid-γGlu}-KCNTATCATQRLAEFLHRSSNNF[Sar]A[NMeI]L[dS]STNVGSNTP-NH2; disulfide 2-7) | SS (SS indicates solubility ≥ 1mg/ml) | SS (SS indicates solubility ≥ 1mg/ml) | SS (SS indicates solubility ≥ 1mg/ml) | SS (SS indicates solubility ≥ 1mg/ml) | SS (SS indicates solubility ≥ 1mg/ml) | SS (SS indicates solubility ≥ 1mg/ml) | SS (SS indicates solubility ≥ 1mg/ml) | 96
240 | CC[C@H](C)[C@@H](C(=O)N[C@@H](CC(C)C)C(=O)N[C@@H](CO)C(=O)N[C@@H](CO)C(=O)N[C@H](C(=O)N[C@@H](CC(N)=O)C(=O)N[C@H](C(=O)NCC(=O)N[C@@H](CO)C(=O)N[C@@H](CC(N)=O)C(=O)N[C@H](C(=O)N1CCC[C@H]1C(N)=O)[C@@H](C)O)C(C)C)[C@@H](C)O)N(C)C(=O)CN(C)C(=O)[C@H](Cc1ccccc1)NC(=O)[C@H](CC(N)=O)NC(=O)[C@H](CC(N)=O)NC(=O)[C@H](CO)NC(=O)[C@H](CO)NC(=O)[C@H](Cc1c[nH]cn1)NC(=O)[C@H](Cc1c[nH]cn1)NC(=O)[C@H](CC(C)C)NC(=O)[C@H](Cc1ccccc1)NC(=O)[C@H](CCC(=O)O)NC(=O)[C@H](C)NC(=O)[C@H](CC(C)C)NC(=O)[C@H](CCCNC(=N)N)NC(=O)[C@H](CCC(N)=O)NC(=O)[C@@H](NC(=O)[C@H](C)NC(=O)[C@@H]1CSSC[C@H](NC(=O)[C@H](CN)NC(=O)CC[C@H](NC(=O)CCCCCCCCCCCCCCCCCCC(=O)O)C(=O)O)C(=O)N[C@@H](CC(N)=O)C(=O)N[C@@H]([C@@H](C)O)C(=O)N[C@@H](C)C(=O)N[C@@H]([C@@H](C)O)C(=O)N1)[C@@H](C)O [Compound 69, [19CD]-isoGlu-Dap-C()NTATC()ATQRLAEFLHHSSNNF-Gly(Me)-Ile(Me)-LSSTNVGSNTP-NH2] ({C20 diacid-γGlu}-[Dap]CNTATCATQRLAEFLHHSSNNF[Sar][NMeI]LSSTNVGSNTP-NH2; disulfide 2-7) | SS (SS indicates solubility ≥ 1mg/ml) | SS (SS indicates solubility ≥ 1mg/ml) | SS (SS indicates solubility ≥ 1mg/ml) | SS (SS indicates solubility ≥ 1mg/ml) | SS (SS indicates solubility ≥ 1mg/ml) | SS (SS indicates solubility ≥ 1mg/ml) | SS (SS indicates solubility ≥ 1mg/ml) | 
110 | CC[C@H](C)[C@@H](C(=O)N[C@@H](CC(C)C)C(=O)N[C@H](CO)C(=O)N[C@@H](CO)C(=O)N[C@H](C(=O)N[C@@H](CC(N)=O)C(=O)N[C@H](C(=O)NCC(=O)N[C@@H](CO)C(=O)N[C@@H](CC(N)=O)C(=O)N[C@H](C(=O)N1CCC[C@H]1C(N)=O)[C@@H](C)O)C(C)C)[C@@H](C)O)N(C)C(=O)CN(C)C(=O)[C@H](Cc1ccccc1)NC(=O)[C@H](CC(N)=O)NC(=O)[C@H](CC(N)=O)NC(=O)[C@H](CO)NC(=O)[C@H](CO)NC(=O)[C@H](CCCNC(=N)N)NC(=O)[C@H](Cc1c[nH]cn1)NC(=O)[C@H](CC(C)C)NC(=O)[C@H](Cc1ccccc1)NC(=O)[C@H](CCC(=O)O)NC(=O)[C@H](C)NC(=O)[C@H](CC(C)C)NC(=O)[C@H](CCCNC(=N)N)NC(=O)[C@H](CCC(N)=O)NC(=O)[C@@H](NC(=O)[C@H](C)NC(=O)[C@@H]1CSSC[C@H](NC(=O)[C@H](CCCCN)NC(=O)CC[C@H](NC(=O)CCCCCCCCCCCCCCCCCCC(=O)O)C(=O)O)C(=O)N[C@@H](CC(N)=O)C(=O)N[C@@H]([C@@H](C)O)C(=O)N[C@@H](C)C(=O)N[C@@H]([C@@H](C)O)C(=O)N1)[C@@H](C)O [Compound 70, [19CD]-isoGlu-KC()NTATC()ATQRLAEFLHRSSNNF-Gly(Me)-Ile(Me)-L-DSer-STNVGSNTP-NH2] ({C20 diacid-γGlu}-KCNTATCATQRLAEFLHRSSNNF[Sar][NMeI]L[dS]STNVGSNTP-NH2; disulfide 2-7) | SS (SS indicates solubility ≥ 1mg/ml) | SS (SS indicates solubility ≥ 1mg/ml) | SS (SS indicates solubility ≥ 1mg/ml) | SS (SS indicates solubility ≥ 1mg/ml) | SS (SS indicates solubility ≥ 1mg/ml) | SS (SS indicates solubility ≥ 1mg/ml) | SS (SS indicates solubility ≥ 1mg/ml) | 
 | CC[C@H](C)[C@@H](C(=O)N[C@@H](CC(C)C)C(=O)N[C@@H](CO)C(=O)N[C@@H](CO)C(=O)N[C@H](C(=O)N[C@@H](CC(N)=O)C(=O)N[C@H](C(=O)NCC(=O)N[C@@H](CO)C(=O)N[C@@H](CC(N)=O)C(=O)N[C@H](C(=O)N1CCC[C@H]1C(N)=O)[C@@H](C)O)C(C)C)[C@@H](C)O)N(C)C(=O)[C@H](C)NC(=O)CN(C)C(=O)[C@@H](Cc1ccccc1)NC(=O)[C@H](CC(N)=O)NC(=O)[C@H](CC(N)=O)NC(=O)[C@H](CO)NC(=O)[C@H](CO)NC(=O)[C@H](CCCNC(=N)N)NC(=O)[C@H](Cc1c[nH]cn1)NC(=O)[C@H](CC(C)C)NC(=O)[C@H](Cc1ccccc1)NC(=O)[C@H](CCC(=O)O)NC(=O)[C@H](C)NC(=O)[C@H](CC(C)C)NC(=O)[C@H](CCCNC(=N)N)NC(=O)[C@H](CCC(N)=O)NC(=O)[C@@H](NC(=O)[C@H](C)NC(=O)[C@@H]1CSSC[C@H](NC(=O)[C@H](CCCCN)NC(=O)CC[C@H](NC(=O)CCCCCCCCCCCCCCCCCCC(=O)O)C(=O)O)C(=O)N[C@@H](CC(N)=O)C(=O)N[C@@H]([C@@H](C)O)C(=O)N[C@@H](C)C(=O)N[C@@H]([C@@H](C)O)C(=O)N1)[C@@H](C)O [Compound 71, [19CD]-isoGlu-KC()NTATC()ATQRLAEFLHRSSNN-DPhe-Gly(Me)-A-Ile(Me)-LSSTNVGSNTP-NH2] ({C20 diacid-γGlu}-KCNTATCATQRLAEFLHRSSNN[dF][Sar]A[NMeI]LSSTNVGSNTP-NH2; disulfide 2-7) | SS (SS indicates solubility ≥ 1mg/ml) | SS (SS indicates solubility ≥ 1mg/ml) | SS (SS indicates solubility ≥ 1mg/ml) | SS (SS indicates solubility ≥ 1mg/ml) | SS (SS indicates solubility ≥ 1mg/ml) | SS (SS indicates solubility ≥ 1mg/ml) | SS (SS indicates solubility ≥ 1mg/ml) | 68
